# Assays:
# cerebrospinal tissue = assay: DNA array analysis of cerebrospinal tissue of EAE model animals; assay type: in vivo, Lewis rats; conditions: Day 14, intrathecal continuous administration 6 µg/day immediately after inoculation of antigen
# K562 [1] = assay: DNA chip gene expression analysis, cytokine- and chemokine-associated genes (Example 4); assay type: cell-based, human; conditions: 42°C 20 minutes then 37°C 30 minutes, HA4 10 ng/ml
# Procedure: Experimental method: First, the K562 was incubated in Groups 1 and 2 in the RPMI medium described above. The both groups were incubated at 42°C for 20 minutes followed by 37°C for 30 minutes. The medium of Group 2 was supplemented with HA4 (10 ng/ml).
# (§1) After the incubation, the medium was removed by centrifugation at 1000 rpm. The obtained cells were stored in a deep freezer at -60°C. From the cells thus stored, RNA was extracted according to a standard method. The extracted RNA was subjected to the DNA chip to analyze the gene expression. The DNA chip gene expression analysis was subtracted to DNA CHIP Research Inc. Specifically, the trade name: AceGene Human Oligo Chip 30K 1 Chip Version manufactured by DNA CHIP Research Inc. was employed.
# [2] = test system: experimental autoimmune encephalomyelitis (EAE); assay: EAE (multiple sclerosis model) neural symptom evaluation after intraspinal administration; assay type: in vivo, Lewis rats; conditions: for clinical score (EAE grade): Day 13 after antigen inoculation
# U937 cell [3] = assay: Cytokine production under LPS stimulation, cytokine antibody array; assay type: cell-based, human; conditions: LPS 100 ng/ml, HA4 100 ng/ml, 24 hours
# Procedure: (§2) • 2. Cell: U937 cell (human monocyte line), purchased from Dainipon Sumitomo Seiyaku. • 3. Culture medium: RPMI medium (containing 10% FBS). • 4. LPS E.coli, 0111B4, Chemicon.
# (§3) An U937 cell was disseminated in a 2 ml aliquot in a 6-well microplate at 5×10^5 cell/ml, supplemented with an LPS at a final concentration of 100 or 1000 ng/ml, and then incubated for 24 hours with 5% CO2 at 37°C in the presence or absence of HA4 (100 ng/ml) . The culture supernatant was centrifuged at 3000 rpm for 5 minutes to obtain a test substance. A 1 ml aliquot of the recovered supernatant was subjected to Human Cytokine Antibody array (Raybio) using an ELISA (ENDOGEN) to detect the production of various cytokines.
# A 2 ml aliquot of a blocking buffer was added to a membrane blotted with an antibody, which was then shaken for 30 minutes. The blocking buffer was removed, and a 1 ml aliquot of the culture supernatant was added and shaken at room temperature for 2 hours, washed 5 times, and then admixed with a primary antibody solution. After agitating at room temperature for 1.5 hours followed by washing 5 times, a secondary antibody solution was added and agitated overnight at 4°C. After washing 5 times, a chemiluminescence was allowed to develop and photographed by a Polaroid. The photograph was scanned to obtain its digital data which were subjected to an Image J to measure the luminescent intensity. The ratio based on the luminescent intensity of an internal standard placed in 6 positions in the membrane was calculated. In addition, a relative level (%) based on the expression level in a non-treatment group (NT) being 100 was calculated.
# K562 [4] = assay: Cell viability by Rhodamine 123 staining after heat treatment; assay type: cell-based, human; conditions: 20 minutes at 43°C (heat treatment) followed by 60 minutes at 37°C, HA4 100 ng/ml
# Procedure: In this example, effect of the inventive pharmaceutical agent on cell viability was measured using Rhodamine 123. […] Accordingly, the degree of the staining with Rhodamine 123 serves as an index of the mitochondrial activity, thus the index of the cellular activity (see, non-patent reference 2).
# In this example, a K562 (referred to as human erythroleukemia cell or human erythroblastoid leukemia cell) was used. The K562 was purchased from RIKEN, Japan.
# In this example relating to preparation of test substance, HA4 was prepared at 100 ng/ml. Specifically, HA4 was prepared by the method of Tawada et al. (Tawada A, Masa T, Oonuki Y, Watanabe A, Matsuzaki Y, Asari A. Large-scale preparation, purification and characterization of hyaluronan oligosaccharides from 4-mers to 52-mers. Glycobiology, 2002; 12(7):421-6) and the concentration was adjusted using a physiological saline.
# First, the K562 was incubated under the condition described below. The culture medium for the K562 was an RPMI-1640 medium. In this example, the K562 was incubated in Groups 1 to 3 shown below. Each group was cultured under the condition described below. […]
# The K562 after washing was inoculated at 1×10^4 cells/ml in a 96-well plate and a photograph was taken using a fluorescent microscope (Nikon) . The image was sent to anAdobe Photoshop (Adobe Systems) where the fluorescent intensity of a cell was measured.
# U937 cell [5] = assay: IL-6 production under LPS stimulation, ELISA; assay type: cell-based, human; conditions: LPS 100 ng/ml, HA4 100 ng/ml, 24 hours
# Procedure: as §2, §3
# To a microplate, 50 µl of a biotinylated antibody solution and 50 µl of the culture supernatant were added, and allowed to stand at room temperature for 2 hours. After washing with a washing buffer three times, 100 µl of a streptoavidin-HRP solution was added, allowed to stand at room temperature for 30 minutes, and washed with the washing buffer three times. A TMB was added, allowed to stand for at room temperature 30 minutes, and then a quencher was added to stop the reaction and the absorbance at 450 nm was measured (reference: 562 nm). The IL-6 concentration (pg/ml) was calculated based on the standard solutions measured in parallel.
# K562 [6] = assay: DNA chip gene expression analysis, cell viability-related genes (Example 3); assay type: cell-based, human; conditions: 42°C 20 minutes then 37°C 30 minutes, HA4 10 ng/ml
# Procedure: First, the K562 was incubated in Groups 1 and 2 in the […] described above. The both groups were incubated at 42°C for 20 minutes followed by 37°C for 30 minutes. The medium of Group 2 was supplemented with HA4 (10 ng/ml).
# as §1, with “analyze” for “analyze the”, “gene expressions.” for “gene expression.”, “by DNACHIP” for “by DNA CHIP”
# [7] = Cytotoxicity (general statement); conditions: at a dose exhibiting a biological activity of a pharmaceutical
# [8] = intraspinal continuous administration immediately after inoculation, 6 µg/day, 22 Days
# [9] = intraspinal single administration after onset of disease, 60 µg
substance,measurement,setting,value
tetrasaccharide hyaluronan [HA4],Expression level ratio (HA/physiological saline),cerebrospinal tissue; Decoy TRAIL receptor without death domain,2.0
same,Expression level ratio (HA/physiological saline),cerebrospinal tissue; Fibroblast growth factor receptor substrate 2,2.3
same,Expression level ratio (HA/physiological saline),cerebrospinal tissue; Transthyretin,0.38
same,HA4(+)/HA4(-) ratio,K562 [1]; gene CCL28,0.32
same,HA4(+)/HA4(-) ratio,K562 [1]; gene IFN-γ,0.11
same,HA4(+)/HA4(-) ratio,K562 [1]; gene IFN-ω1,0.5
same,HA4(+)/HA4(-) ratio,K562 [1]; gene IL-1β,0.36
same,HA4(+)/HA4(-) ratio,K562 [1]; gene IL-5,0.28
same,HA4(+)/HA4(-) ratio,K562 [1]; gene IL-17b,0.31
same,HA4(+)/HA4(-) ratio,K562 [1]; gene IL-18RAP,0.32
same,HA4(+)/HA4(-) ratio,K562 [1]; gene Mig(CXCL9),0.11
same,clinical score (EAE grade),"[2]; intraspinal continuous administration from onset of disease, 6 µg/day, 11 Days",1.5 ± 1.0
same,clinical score (EAE grade),[2]; [8],0.2 ± 0.41
same,clinical score (EAE grade),[2]; [9],1.8 ± 0.5
same,cases developing the disease,[2]; [8],1/6
same,diseased period,[2]; [9],5.0 ± 1.5 days
same,production of IL-1α,U937 cell [3],reduction
same,production of IL-1β,U937 cell [3],reduction
same,production of IL-6,U937 cell [3],reduction
same,production of TGF-β,U937 cell [3],reduction
same,production of TNF-α,U937 cell [3],reduction
same,production of TNF-β,U937 cell [3],reduction
same,Rhodamine 123 staining performance (fluorescent intensity),K562 [4],inhibited such a reduction
same,production of IL-6,U937 cell [5],reduction
same,HAA+/- ratio,K562 [6]; gene Caspase 2,0.27
same,HAA+/- ratio,K562 [6]; gene DNAJ2,0.34
same,HAA+/- ratio,K562 [6]; gene Granzyme H,0.38
same,HAA+/- ratio,K562 [6]; gene STK17b (DARK2),0.09
same,HAA+/- ratio,K562 [6]; gene TAF9L,0.43
same,HAA+/- ratio,K562 [6]; gene dnaj (hsp40) homolog,2.62
same,HAA+/- ratio,K562 [6]; gene pawr (Par-4),0.45
same,cytotoxicity,[7],almost or completely no cytotoxicity

# Reference: patent publication EP1767211B1, “Pharmaceutical agent containing hyaluronan as an active ingredient” (Glycoscience Laboratories, Inc., priority 2005, dated 2007)
